Our source for the IC50 values is patent publication US9580416B2, “Inhibitors of Bruton's tyrosine kinase” (PHARMACYCLICS LLC, priority 2014, dated 2017).

What all share (assay type): biochemical
For one experiment, the target named is T1, JAK3 (Homo sapiens, UniProt P52333).
T1 sequence (P52333 1-1124): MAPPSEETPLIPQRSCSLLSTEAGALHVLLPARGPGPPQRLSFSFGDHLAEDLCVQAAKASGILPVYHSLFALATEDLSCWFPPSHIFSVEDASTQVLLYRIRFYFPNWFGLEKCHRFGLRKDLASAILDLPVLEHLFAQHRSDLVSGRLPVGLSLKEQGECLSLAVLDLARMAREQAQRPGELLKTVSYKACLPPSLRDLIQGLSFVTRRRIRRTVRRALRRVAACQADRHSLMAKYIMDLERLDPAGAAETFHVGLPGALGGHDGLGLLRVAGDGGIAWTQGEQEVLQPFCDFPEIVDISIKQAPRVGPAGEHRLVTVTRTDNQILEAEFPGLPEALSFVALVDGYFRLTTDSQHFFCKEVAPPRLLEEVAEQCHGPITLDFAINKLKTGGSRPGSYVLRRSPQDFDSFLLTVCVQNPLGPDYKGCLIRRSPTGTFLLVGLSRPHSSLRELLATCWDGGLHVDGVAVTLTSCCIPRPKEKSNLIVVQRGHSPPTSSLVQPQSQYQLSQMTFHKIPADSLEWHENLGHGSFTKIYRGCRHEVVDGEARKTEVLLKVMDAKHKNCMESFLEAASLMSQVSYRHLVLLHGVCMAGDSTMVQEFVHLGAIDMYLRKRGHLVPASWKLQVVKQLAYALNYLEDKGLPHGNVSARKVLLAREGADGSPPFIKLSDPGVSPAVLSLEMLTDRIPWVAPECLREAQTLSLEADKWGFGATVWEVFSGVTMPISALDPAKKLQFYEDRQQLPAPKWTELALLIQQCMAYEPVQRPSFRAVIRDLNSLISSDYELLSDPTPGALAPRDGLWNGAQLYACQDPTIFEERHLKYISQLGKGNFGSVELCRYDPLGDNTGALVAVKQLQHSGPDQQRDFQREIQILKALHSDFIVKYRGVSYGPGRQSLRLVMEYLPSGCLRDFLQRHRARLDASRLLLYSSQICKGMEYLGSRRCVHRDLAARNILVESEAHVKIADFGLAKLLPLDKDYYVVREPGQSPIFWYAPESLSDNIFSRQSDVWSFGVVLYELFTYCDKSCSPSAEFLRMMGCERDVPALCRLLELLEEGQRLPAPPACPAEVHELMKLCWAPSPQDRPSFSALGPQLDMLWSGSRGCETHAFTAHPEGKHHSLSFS
The experiment is described as follows: Inhibition of a panel of kinases, in vitro HotSpot kinase assay: JAK3. As to the method:
(§1) The degree of inhibition of a panel of kinases is determined using the in vitro HotSpot kinase assay (purified enzymes, ^33P-ATP, an appropriate substrate and 1 uM ATP).

Another experiment concerns the target Lck (Homo sapiens, UniProt P06239). The experiment is described as follows: Lck kinase activity, TR-FRET assay. The conditions noted are these: read-out: LCK (IC50). In short, it runs like this: (§2)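 Enzyme (Btk 0.5 nM; Lck 6 nM) reacted 1 h with inhibitor, ATP at Km and biotin-peptide substrate in pH 7.4 buffer, 10% DMSO. Phosphopeptide detected by Eu-p-Tyr100 antibody plus streptavidin-APC (665/615 nm). IC50 calculated from fitted Ki(app) via ATP/Km correction plus half total enzyme.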
(TR-FRET usually uses a lanthanide donor and a delayed reading to cut background.)

The target of another experiment is EGFR (Homo sapiens, UniProt P00533). As to the kind of experiment: Inhibition of a panel of kinases, in vitro HotSpot kinase assay: EGFR. As to the method: as §1
A further experiment concerns the target Btk (Homo sapiens, UniProt Q06187). As to the kind of experiment: Btk kinase activity, TR-FRET assay. The conditions noted are these: read-out: Btk (IC50). In short, it runs like this:
as §2

For orientation: IC50 means the concentration at which inhibition is half-maximal.

Sequence of Lck (P06239 whole entry, species assumed): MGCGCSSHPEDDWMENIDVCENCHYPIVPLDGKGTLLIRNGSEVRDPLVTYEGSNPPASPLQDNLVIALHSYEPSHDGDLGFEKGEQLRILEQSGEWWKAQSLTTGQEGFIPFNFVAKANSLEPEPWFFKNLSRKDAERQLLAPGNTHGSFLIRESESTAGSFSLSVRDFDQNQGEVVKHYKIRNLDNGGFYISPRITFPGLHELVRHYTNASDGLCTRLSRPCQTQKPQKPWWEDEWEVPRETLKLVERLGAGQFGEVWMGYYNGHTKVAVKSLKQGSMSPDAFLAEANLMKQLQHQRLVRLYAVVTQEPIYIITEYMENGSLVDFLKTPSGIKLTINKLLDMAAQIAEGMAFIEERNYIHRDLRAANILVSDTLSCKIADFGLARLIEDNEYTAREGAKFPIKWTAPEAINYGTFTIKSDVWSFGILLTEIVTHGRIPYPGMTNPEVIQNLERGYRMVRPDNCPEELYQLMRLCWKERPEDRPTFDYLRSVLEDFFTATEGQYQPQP
Sequence of EGFR (P00533 25-1210): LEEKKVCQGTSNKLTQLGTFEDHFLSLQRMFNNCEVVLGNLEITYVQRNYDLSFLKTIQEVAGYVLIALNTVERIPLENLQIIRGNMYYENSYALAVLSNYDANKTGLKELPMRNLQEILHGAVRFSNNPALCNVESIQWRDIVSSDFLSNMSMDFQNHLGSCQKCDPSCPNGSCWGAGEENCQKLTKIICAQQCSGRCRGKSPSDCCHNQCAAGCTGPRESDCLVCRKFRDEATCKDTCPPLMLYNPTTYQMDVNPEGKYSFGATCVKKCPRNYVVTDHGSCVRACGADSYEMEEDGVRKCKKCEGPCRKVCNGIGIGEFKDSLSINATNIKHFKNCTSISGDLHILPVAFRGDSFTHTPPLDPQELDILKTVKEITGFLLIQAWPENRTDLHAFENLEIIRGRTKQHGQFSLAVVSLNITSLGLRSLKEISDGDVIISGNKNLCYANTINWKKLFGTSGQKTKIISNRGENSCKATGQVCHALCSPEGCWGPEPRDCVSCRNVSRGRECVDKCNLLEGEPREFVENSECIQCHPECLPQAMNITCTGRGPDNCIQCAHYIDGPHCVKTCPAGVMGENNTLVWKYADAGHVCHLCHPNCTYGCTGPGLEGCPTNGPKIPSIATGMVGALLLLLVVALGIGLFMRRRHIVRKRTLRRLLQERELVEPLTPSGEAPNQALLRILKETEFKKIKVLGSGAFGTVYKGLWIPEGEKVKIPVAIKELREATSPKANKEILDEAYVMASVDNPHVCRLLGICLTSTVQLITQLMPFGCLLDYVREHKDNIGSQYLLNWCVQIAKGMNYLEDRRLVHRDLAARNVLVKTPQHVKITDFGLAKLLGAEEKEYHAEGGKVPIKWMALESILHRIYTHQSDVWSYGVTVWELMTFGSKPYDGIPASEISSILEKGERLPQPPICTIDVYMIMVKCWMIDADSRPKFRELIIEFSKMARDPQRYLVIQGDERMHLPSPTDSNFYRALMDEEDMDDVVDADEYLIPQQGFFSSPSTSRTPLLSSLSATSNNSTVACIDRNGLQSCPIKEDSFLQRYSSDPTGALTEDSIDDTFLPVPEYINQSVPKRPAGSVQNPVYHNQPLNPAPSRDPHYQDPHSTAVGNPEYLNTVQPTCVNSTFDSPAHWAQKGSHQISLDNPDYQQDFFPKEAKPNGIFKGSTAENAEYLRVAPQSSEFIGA
Sequence of Btk (Q06187 whole entry): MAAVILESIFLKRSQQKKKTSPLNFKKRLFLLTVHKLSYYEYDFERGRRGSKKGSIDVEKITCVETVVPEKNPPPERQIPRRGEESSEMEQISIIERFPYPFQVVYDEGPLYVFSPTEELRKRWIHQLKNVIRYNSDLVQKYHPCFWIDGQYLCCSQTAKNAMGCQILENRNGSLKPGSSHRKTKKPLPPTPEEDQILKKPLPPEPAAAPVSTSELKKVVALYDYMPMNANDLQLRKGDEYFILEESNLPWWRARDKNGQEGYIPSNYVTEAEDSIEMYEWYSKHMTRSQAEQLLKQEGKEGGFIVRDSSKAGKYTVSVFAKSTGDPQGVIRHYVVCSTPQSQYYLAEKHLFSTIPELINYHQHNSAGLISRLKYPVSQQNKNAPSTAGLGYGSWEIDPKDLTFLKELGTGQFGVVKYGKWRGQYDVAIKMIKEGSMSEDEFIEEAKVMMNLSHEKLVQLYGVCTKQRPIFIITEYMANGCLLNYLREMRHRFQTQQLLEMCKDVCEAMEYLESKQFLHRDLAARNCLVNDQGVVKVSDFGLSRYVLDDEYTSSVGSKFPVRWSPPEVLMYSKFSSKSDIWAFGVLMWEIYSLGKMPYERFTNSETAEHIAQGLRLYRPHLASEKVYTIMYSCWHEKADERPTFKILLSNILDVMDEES

In the case of `CC(=O)N1CC[C@H](Nc2n[nH]c3nccc(Oc4cccc(C(=O)Nc5ccc(C(C)C)c(C)c5)c4)c23)C1` [compound 124, 3-[(3-{[(3S)-1-acetylpyrrolidin-3-yl]amino}-1H-pyrazolo[3,4-b]pyridin-4-yl)oxy]-N-[3-methyl-4-(propan-2-yl)phenyl]benzamide], the IC50 against JAK3 is 1000 to 10000 nM; at Lck, less than 100 nM; against EGFR, 1000 to 10000 nM; at Btk, 100 to 1000 nM.

For the molecule `Cc1cc(NC(=O)c2cccc(Oc3ccnc4[nH]nc(N[C@H]5CCN(C(=O)C6CC6)C5)c34)c2)ccc1C(C)C` [compound 125, 3-[(3-{[(3S)-1-cyclopropanecarbonylpyrrolidin-3-yl]amino}-1H-pyrazolo[3,4-b]pyridin-4-yl)oxy]-N-[3-methyl-4-(propan-2-yl)phenyl]benzamide], the 50% inhibitory concentration (IC50) against JAK3 is 1000 to 10000 nM; at Lck it was less than 100 nM; against EGFR, greater than 10000 nM; on Btk, 100 to 1000 nM.

For `O=C(Nc1ccccn1)c1ccc(Oc2ccnc3[nH]nc(N[C@@H]4CCCN(C(=O)C5CC5)C4)c23)cc1` [compound 232, 4-[(3-{[(3R)-1-cyclopropanecarbonylpiperidin-3-yl]amino}-1H-pyrazolo[3,4-b]pyridin-4-yl)oxy]-N-(pyridin-2-yl)benzamide], the 50% inhibitory concentration (IC50) against JAK3 was greater than 10000 nM; at Lck, greater than 10000 nM; against EGFR it was 1000 to 10000 nM; on Btk, less than 100 nM.

Consider `C=CC(=O)N1CCC[C@@H](Nc2n[nH]c3nccc(Oc4ccc(-c5nc(C(F)(F)F)c[nH]5)cc4)c23)C1` [compound 154], for which the half-maximal inhibitory concentration (IC50) is 1000 to 10000 nM on JAK3, greater than 10000 nM at Lck, 1000 to 10000 nM at EGFR and less than 100 nM at Btk.

In the case of `CC#CC(=O)N1CCC[C@@H](Nc2n[nH]c3nccc(Oc4ccc(C(=O)Nc5nc6ccccc6s5)cc4)c23)C1` [compound 183], the IC50 at JAK3 is 100 to 1000 nM; at Lck, 100 to 1000 nM; on EGFR, greater than 10000 nM; on Btk, less than 100 nM.

For `CC1(C(=O)N2CCC[C@@H](Nc3n[nH]c4nccc(Oc5ccc(C(=O)Nc6nc7ccccc7s6)cc5)c34)C2)COC1` [compound 226, N-(1,3-benzothiazol-2-yl)-4-[(3-{[(3R)-1-(3-methyloxetane-3-carbonyl)piperidin-3-yl]amino}-1H-pyrazolo[3,4-b]pyridin-4-yl)oxy]benzamide], the concentration for half-maximal inhibition (IC50) on JAK3 was 1000 to 10000 nM; at Lck it was 100 to 1000 nM; against EGFR it was greater than 10000 nM; at Btk, less than 100 nM.

For the molecule `Cc1cc(NC(=O)c2cccc(Nc3ccnc4[nH]nc(N[C@@H]5CCCN(C(=O)N6CCOCC6)C5)c34)c2)ccc1C(C)C` [compound 133, N-[3-methyl-4-(propan-2-yl)phenyl]-3-[(3-{[(3R)-1-(morpholine-4-carbonyl)piperidin-3-yl]amino}-1H-pyrazolo[3,4-b]pyridin-4-yl)amino]benzamide], the IC50 was greater than 10000 nM at JAK3, 1000 to 10000 nM on Lck, greater than 10000 nM against EGFR and 100 to 1000 nM at Btk.

In the case of `C=CC(=O)N1CCC[C@@H](Nc2n[nH]c3nccc(Oc4ccc(Oc5ccccc5)c(C)c4)c23)C1` [compound 153], the IC50 at JAK3 was 100 to 1000 nM; at Lck, 100 to 1000 nM; against EGFR it was less than 100 nM; at Btk, less than 100 nM.

For `CC1(C(=O)N2CCC[C@@H](Nc3n[nH]c4nccc(Oc5ccc(C(=O)Nc6ccccn6)cc5)c34)C2)COC1` [compound 111, 4-[(3-{[(3R)-1-(3-methyloxetane-3-carbonyl)piperidin-3-yl]amino}-1H-pyrazolo[3,4-b]pyridin-4-yl)oxy]-N-(pyridin-2-yl)benzamide], the half-inhibitory concentration (IC50) is greater than 10000 nM on JAK3, 1000 to 10000 nM at Lck, greater than 10000 nM on EGFR and less than 100 nM at Btk.

In the case of `C=CC(=O)N1CCC[C@@H](Nc2n[nH]c3nccc(Oc4ccc(Oc5ccccc5)cc4)c23)C1` [compound 6, 1-[(3R)-3-{[4-(4-phenoxyphenoxy)-1H-pyrazolo[3,4-b]pyridin-3-yl]amino}piperidin-1-yl]prop-2-en-1-one], the IC50 was 100 to 1000 nM against JAK3, less than 100 nM at Lck, less than 100 nM against EGFR and less than 100 nM at Btk.

As for `CCNC(=O)N1CCC[C@@H](Nc2n[nH]c3nccc(Oc4ccc(C(=O)Nc5cc(C)ccn5)cc4)c23)C1` [compound 227, (R)-N-ethyl-3-(4-(4-(4-methylpyridin-2-ylcarbamoyl)phenoxy)-1H-pyrazolo[3,4-b]pyridin-3-ylamino)piperidine-1-carboxamide], the IC50 on JAK3 is greater than 10000 nM; at Lck, 1000 to 10000 nM; on EGFR, greater than 10000 nM; at Btk, less than 100 nM.

As for `C=CC(=O)N1CC[C@@H](Nc2n[nH]c3nccc(Oc4ccc(Cl)cc4)c23)C1` [compound 1], the IC50 is 1000 to 10000 nM at JAK3, 1000 to 10000 nM on Lck, 100 to 1000 nM at EGFR and less than 100 nM at Btk.

Turning to `Cc1cnc(NC(=O)c2ccc(Oc3ccnc4[nH]nc(N[C@@H]5CCCN(C(=O)/C=C/CN(C)C6CC6)C5)c34)cc2)s1` [compound 142], the IC50 on JAK3 is 1000 to 10000 nM; on Lck, 1000 to 10000 nM; on EGFR, 1000 to 10000 nM; at Btk, less than 100 nM.

For `Cc1ccnc(NC(=O)c2ccc(Oc3ccnc4[nH]nc(NC5CCN(C(=O)C6(C#N)CC6)CC5)c34)cc2)c1` [compound 277, 4-(3-(1-(1-cyanocyclopropanecarbonyl)piperidin-4-ylamino)-1H-pyrazolo[3,4-b]pyridin-4-yloxy)-N-(4-methylpyridin-2-yl)benzamide], the IC50 at JAK3 was greater than 10000 nM; on Lck it was 1000 to 10000 nM; against EGFR it was 1000 to 10000 nM; at Btk, 100 to 1000 nM.

`Cc1ccnc(NC(=O)c2ccc(Oc3ccnc4[nH]nc(N[C@@H]5CCCN(C(=O)N(C)C)C5)c34)cc2)c1` [compound 106, (3R)-N,N-dimethyl-3-[(4-{4-[(4-methylpyridin-2-yl)carbamoyl]phenoxy}-1H-pyrazolo[3,4-b]pyridin-3-yl)amino]piperidine-1-carboxamide]: the half-inhibitory concentration (IC50) is greater than 10000 nM on JAK3, 100 to 1000 nM on Lck, 1000 to 10000 nM against EGFR and less than 100 nM on Btk.

For the molecule `CN(C/C=C/C(=O)N1CCC[C@@H](Nc2n[nH]c3nccc(Oc4ccc(Oc5ccccc5)cc4)c23)C1)C1CC1` [compound 8, (2E)-4-[cyclopropyl(methyl)amino]-1-[(3R)-3-{[4-(4-phenoxyphenoxy)-1H-pyrazolo[3,4-b]pyridin-3-yl]amino}piperidin-1-yl]but-2-en-1-one], the IC50 at JAK3 is greater than 10000 nM; on Lck it was less than 100 nM; against EGFR it was 100 to 1000 nM; at Btk it was less than 100 nM.

Regarding `Cc1ccnc(NC(=O)c2ccc(Oc3ccnc4[nH]nc(N[C@@H]5CCCN(S(C)(=O)=O)C5)c34)cc2)c1` [compound 269, (R)-N-(4-methylpyridin-2-yl)-4-(3-(1-(methylsulfonyl)piperidin-3-ylamino)-1H-pyrazolo[3,4-b]pyridin-4-yloxy)benzamide], the IC50 at JAK3 is greater than 10000 nM; on Lck, 100 to 1000 nM; on EGFR it was 1000 to 10000 nM; on Btk it was less than 100 nM.

Take `COCCC(=O)N1CCC[C@@H](Nc2n[nH]c3nccc(Oc4ccc(C(=O)Nc5cc(C)ccn5)cc4)c23)C1` [compound 119, 4-[(3-{[(3R)-1-(3-methoxypropanoyl)piperidin-3-yl]amino}-1H-pyrazolo[3,4-b]pyridin-4-yl)oxy]-N-(4-methylpyridin-2-yl)benzamide]: the IC50 against JAK3 was greater than 10000 nM; at Lck it was 100 to 1000 nM; on EGFR it was 1000 to 10000 nM; on Btk, less than 100 nM.
